In ChEMBL document CHEMBL1136073, “2,4-Dicarboxy-pyrroles as selective non-competitive mGluR1 antagonists: further characterization of 3,5-dimethyl pyrrole-2,4-dicarboxylic acid 2-propyl ester 4-(1,2,2-trimethyl-propyl) ester and structure-activity relationships” (Bioorg Med Chem Lett, 2003):

What was measured:
Assay type in all cases: cell-based; call rule not given here
[1] = biological target: T1, Metabotropic glutamate receptor 1 (Rattus norvegicus, UniProt P23385); experiment: In vitro inhibition of rat metabotropic glutamate receptor 1 in CHO cells using the CDP-DAG accumulation method.
[2] = biological target: T1, Metabotropic glutamate receptor 1; experiment: In vitro inhibition of rat Metabotropic glutamate receptor 1 in CHO cells using the CDP-DAG accumulation method: Not active uM
[3] = biological target: T1, Metabotropic glutamate receptor 1; experiment: In vitro inhibitory concentration required against rat mGluR1a in CHO cells using the CDP-DAG accumulation method
[4] = biological target: T1, Metabotropic glutamate receptor 1; experiment: In vitro inhibitory concentration required against rat mGluR1a in CHO cells using the CDP-DAG accumulation method: Not active uM

T1 sequence (P23385 whole entry): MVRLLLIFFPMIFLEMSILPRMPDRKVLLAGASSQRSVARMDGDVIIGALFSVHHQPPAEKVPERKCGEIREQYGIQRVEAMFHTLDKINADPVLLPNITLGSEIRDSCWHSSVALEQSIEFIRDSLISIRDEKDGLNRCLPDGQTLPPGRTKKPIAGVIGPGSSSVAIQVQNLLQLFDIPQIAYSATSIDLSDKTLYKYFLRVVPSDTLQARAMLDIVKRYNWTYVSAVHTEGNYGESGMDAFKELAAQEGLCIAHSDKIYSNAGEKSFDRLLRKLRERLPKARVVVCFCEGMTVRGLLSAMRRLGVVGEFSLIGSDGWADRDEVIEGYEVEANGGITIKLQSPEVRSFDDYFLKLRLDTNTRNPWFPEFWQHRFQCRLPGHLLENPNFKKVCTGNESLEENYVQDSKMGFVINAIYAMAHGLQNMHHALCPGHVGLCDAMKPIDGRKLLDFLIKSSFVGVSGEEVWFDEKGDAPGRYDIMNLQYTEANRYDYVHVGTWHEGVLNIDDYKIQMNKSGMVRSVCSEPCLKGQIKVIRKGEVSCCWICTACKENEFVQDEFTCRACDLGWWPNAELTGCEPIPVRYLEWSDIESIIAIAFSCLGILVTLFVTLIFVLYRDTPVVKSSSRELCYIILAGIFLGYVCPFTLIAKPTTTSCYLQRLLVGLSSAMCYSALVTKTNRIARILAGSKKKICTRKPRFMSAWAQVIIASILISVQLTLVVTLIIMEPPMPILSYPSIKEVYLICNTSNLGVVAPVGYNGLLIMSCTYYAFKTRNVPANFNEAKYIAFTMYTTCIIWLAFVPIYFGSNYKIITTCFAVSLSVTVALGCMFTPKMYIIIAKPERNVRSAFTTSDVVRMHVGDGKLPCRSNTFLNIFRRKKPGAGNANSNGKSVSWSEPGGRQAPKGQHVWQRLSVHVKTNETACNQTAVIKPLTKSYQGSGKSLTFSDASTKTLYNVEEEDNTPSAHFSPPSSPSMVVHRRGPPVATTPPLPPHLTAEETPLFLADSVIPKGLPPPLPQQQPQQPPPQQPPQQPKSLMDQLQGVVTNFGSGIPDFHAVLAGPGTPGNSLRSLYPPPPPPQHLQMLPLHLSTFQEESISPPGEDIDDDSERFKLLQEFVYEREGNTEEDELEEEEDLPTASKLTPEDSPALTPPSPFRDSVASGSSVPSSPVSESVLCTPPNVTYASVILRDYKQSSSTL

Row | IC50 [1] | further results | SMILES
1 | 3.2 µM | – | CCCOC(=O)c1[nH]c(C(=O)Sc2ccccn2)c(C(=O)OC(C)(C)C)c1C
2 | – | IC50 [2]: Not Active | CCCOC(=O)c1c(C)c(C(=O)OC(C)(C)C)c(C)n1CC(=O)N(C)C
3 | – | IC50 [2]: Not Active | Cc1c(C(=O)OC(C)(C)C)c[nH]c1C(=O)O
4 | – | IC50 [2]: Not Active | CCCOC(=O)c1[nH]c(C(=O)O)c(C(=O)OC(C)(C)C)c1C
5 | 0.39 µM | – | Cc1c(C(=O)OC(C)C(C)(C)C)c[nH]c1C(=O)OC(C)CN(C)C (stereo unspecified)
6 | 2 µM | – | CCCOC(=O)c1[nH]c(C=O)c(C(=O)OC(C)(C)C)c1C
7 | – | IC50 [2]: Not Active | CCCOC(=O)c1[nH]c(CNCc2ccccc2)c(C(=O)OC(C)(C)C)c1C
8 | 2.5 µM | – | CCCOC(=O)c1[nH]c(C(=O)NCC2CC2)c(C(=O)OC(C)(C)C)c1C
9 | 1.2 µM | – | Cc1c(C(=O)OC(C)(C)C)c[nH]c1C(=O)OCc1ccco1
10 | 3.2 µM | – | CCCOC(=O)c1[nH]c(C(=O)OC)c(C(=O)OC(C)(C)C)c1C
11 | 12.6 µM | – | C=CCOC(=O)Cn1c(C)c(C(=O)OC(C)(C)C)c(C)c1C(=O)OCCC
12 | 0.004 µM | – | CCCOC(=O)c1[nH]cc(C(=O)OC(C)C(C)(C)C)c1C (stereo unspecified)
13 | 0.017 µM | – | Cc1c(C(=O)OC(C)C(C)(C)C)c[nH]c1C(=O)OC(C)(C)C (stereo unspecified)
14 | – | IC50 [3]: 1 µM | CCCOC(=O)c1c(C)c(C(=O)OC(C)(C)C)c(C)n1C
15 | 0.075 µM | – | CCCOC(=O)c1[nH]cc(C(=O)OC(C)(C)C)c1C
16 | – | IC50 [4]: Not Active | C=CCN1CCN(CCn2c(C)c(C(=O)OC(C)(C)C)c(C)c2C(=O)OCCC)CC1
17 | 7.9 µM | – | CCCOC(=O)c1[nH]c(CO)c(C(=O)OC(C)(C)C)c1C
18 | 0.048 µM | – | Cc1c(C(=O)OC(C)(C)C)c[nH]c1C(=O)OCC1CC1

Row | IC50 [1] | further results | SMILES
19 | 15.8 µM | – | CCCOC(=O)c1[nH]c(C)c(C(=O)OC(C)C(C)(C)C)c1C (stereo unspecified)
20 | 0.34 µM | – | CCOC(=O)c1[nH]cc(C(=O)OC(C)(C)C)c1C
21 | 0.16 µM | – | CCCOC(=O)c1[nH]c(Cl)c(C(=O)OC(C)C(C)(C)C)c1C (stereo unspecified)
22 | – | IC50 [2]: Not Active | CCCOC(=O)c1c(C)c(C(=O)OC(C)(C)C)c(C)n1CCO[Si](c1ccccc1)(c1ccccc1)C(C)(C)C
23 | 3 µM | – | Cc1c(C(=O)OC(C)(C)C)c[nH]c1C(=O)Sc1ccccn1
24 | 0.1 µM | – | Cc1c(C(=O)OC(C)(C)C)c[nH]c1C(=O)OC(C)(C)C
25 | – | IC50 [3]: 2.3 µM | CCCOC(=O)c1c(C)c(C(=O)OC(C)(C)C)c(C)n1C(=O)OC(C)(C)C
26 | 0.72 µM | – | Cc1c(C(=O)OC(C)C(C)(C)C)c[nH]c1C(=O)Oc1cccnc1 (stereo unspecified)
27 | – | IC50 [2]: Not Active | CCCOC(=O)c1c(C)c(C(=O)OC(C)(C)C)c(C)n1CCCO[Si](c1ccccc1)(c1ccccc1)C(C)(C)C
28 | – | IC50 [4]: Not Active | CCCOC(=O)c1c(C)c(C(=O)OC(C)(C)C)c(C)n1CCN1CCOCC1
29 | 5.8 µM | – | CCCOC(=O)c1c(C)c(C(=O)OC(C)(C)C)c(C)n1CCCO
30 | 0.26 µM | – | CCN1CCC(OC(=O)c2[nH]cc(C(=O)OC(C)C(C)(C)C)c2C)C1 (stereo unspecified)
31 | – | IC50 [2]: Not Active | CCCOC(=O)c1c(C)c(C(=O)OC(C)(C)C)c(C)n1CC(=O)O
32 | – | IC50 [2]: Not Active | CCCOC(=O)c1[nH]c(CN)c(C(=O)OC(C)(C)C)c1C
33 | 1.45 µM | – | Cc1c(C(=O)OC(C)C(C)(C)C)c[nH]c1C(=O)Oc1ccncn1 (stereo unspecified)
34 | 2.7 µM | – | CCCOC(=O)c1[nH]c(COC(C)=O)c(C(=O)OC(C)(C)C)c1C
35 | 0.16 µM | – | Cc1c(C(=O)OC(C)C(C)(C)C)c[nH]c1C(=O)Oc1c(F)c(F)c(F)c(F)c1F (stereo unspecified)
36 | – | IC50 [2]: Not Active | CCCOC(=O)c1c(C)c(C(=O)OC(C)(C)C)c(C)n1CN1CCCCC1
